Data taken from patent US20090274773A1, “ANTIPROLIFERATIVE COMBINATION COMPRISING CYC-682 AND A CYTOTOXIC AGENT” (Cyclacel Limited, priority 2005, published 2009).

Tests used:
Assay type in all cases: cell-based, human
[1] = system: HCT116 cancer cell line; assay: CYC682 drug-combination study (MTT, Chou and Talalay combination index, isobolograms)
Experimental: (§1) For simultaneous drug exposure, cells were seeded at 2×10^3 cells/well in 96-well plates and treated 24 hours later with increasing concentrations of CYC682 alone or with various concentrations of another drug corresponding to the IC20, IC40 or IC60 values. After approximately four doubling times (120 hours), the growth inhibitory effect was measured by the MTT assay.
(§2) Cells were seeded at 2×10^3 cells/well in 96-well plates and allowed to grow for 24 hour. Cells were then exposed to various concentrations of the first drug for 1 hour/24 hours/48 hours, the drug was removed, the cells were washed and the second drug was added. After additional drug exposure, the second drug was removed, the cells were washed and incubated in drug-free medium for 72 hours. Growth inhibition was then determined by the MTT assay.
(§3) Effects of drug combinations were evaluated using the Chou and Talalay method which is based on the median-effect principle (Chou T C, Talalay P. Quantitative analysis of dose-effect relationships: the combined effects of multiple drugs or enzyme inhibitors. Adv Enzyme Regul. 1984; 22:27-55). […] On the basis of the slope of the curve for each drug in a combination, it can be determined whether the drugs have mutually nonexclusive effects (e.g., independent or interactive modes of action).
(§4) The combination index (CI) is then determined by the equation:
(§5) CI=[(C)1/(Cx)1]+[(C)2/(Cx)2]+[α(C)1(C)2/(Cx)1(Cx)2],
(§6) where (Cx)1 is the concentration of drug 1 required to produce an x percent effect of that drug alone, and (C)1, the concentration of drug 1 required to produce the same x percent effect in combination with (C)2. If the mode of action of the drugs is mutually exclusive or nonexclusive, then α is 0 or 1, respectively. CI values will be calculated with this equation using different values of fa (i.e., for different degrees of cell growth inhibition). CI values of <1 indicate synergy, the value of 1 indicates additive effects, and values >1 indicate antagonism. Data were analyzed on an IBM-PC computer using concentration-effect analysis for microcomputer software (Biosoft, Cambridge, UK). For statistical analysis and graphs we will use Instat and Prism software (GraphPad, San Diego, USA). The dose-effect relationships for the drugs tested, alone or in paired combinations, were subjected to median-effect plot analysis to determine their relative potency (IC50), shape (m), and conformity (r) in each selected cell line. As stated above, the IC50 and m values were respectively used to calculate synergism and antagonism on the basis of the CI equation. Results were expressed as the mean±standard deviation of at least 3 experiments performed in duplicate. In each experiment, cells were exposed to the paired combinations for 48 hours as described above. Means and standard deviations were compared using Student's t-test (two-sided p value).
(§7) The effect of sequential and simultaneous exposure (FIG. 2) to CYC682 with oxaliplatin, doxorubicin, docetaxel and gemcitabine was studied in two sensitive colon cancer cell lines—COLO205 and HCT116 using combination indices that represent an affected fraction for the concentration of drugs corresponding to IC50 as previously described by Chou and Talalay.

[2] = system: COLO205 cancer cell line; assay: as above
Experimental: as §1, §2, §3, §4, §5, §6, §7

[3] = system: NSCLC cell line RERF-LC-MA; assay: CNDAC combinations (alamar blue, Calcusyn Combination Index); settings: named agent in combination with CNDAC, simultaneous treatment 72 h
Experimental: Experiments in the NSCLC cell lines H1299 or RERF-LC-MA were performed in 96-well plates, with cells seeded at a density of 3,000/well, in DMEM containing 10% (v/v) FCS. Stock solutions of all drugs were made up in dimethylsulfoxide (DMSO), with the exception of gemcitabine, which was dissolved in 0.9% (w/v) sterile saline solution.
For experimental assessment of potential synergistic interactions, the concomitant treatment regime involved simultaneous treatment of cells with CNDAC and the other agent under investigation for 72 h, alongside suitable controls of cells treated with the individual compounds alone for 72 hr. In the sequential treatment regimes, one drug was added to the cells 2 h after plating, and left for 24 h. Media was then aspirated, replaced with fresh media containing the second drug and incubated for 72 h. The two individual treatment controls for the sequential treatment regime involved substituting one of the drug treatments with drug-free media. After drug treatment, the number of cells in each well was estimated by incubating for 1 h in media containing 10% alamar blue (Roche, Lewes, East Sussex, U.K.) and measuring the absorbance at 488-595 nm. Drug interactions were analysed using the Calcusyn software package (BioSoft, Cambridge, U.K.) described below. A Combination Index (C.I.) of 1 indicates an additive drug interaction, whereas a C.I. greater than 1 is antagonistic and a score lower than 1 is synergistic.

| Structure (SMILES) | Interaction with CYC682 (isobologram) ([1]; HCT116 (FIG. 5), sequential exposure, at high concentrations) | Interaction with CYC682 (isobologram) ([2]; COLO205 (FIG. 5), sequential exposure, at high concentrations) | Interaction with CYC682 (isobologram) ([1]; HCT116, named agent given prior to CYC682) | Interaction with CYC682 (isobologram) ([2]; COLO205, named agent given prior to CYC682) | Combination Index at ED50, Concomitant [3] | Combination Index at ED75, Concomitant [3] | Combination Index at ED90, Concomitant [3] |
| --- | --- | --- | --- | --- | --- | --- | --- |
| COc1cccc2c1C(=O)c1c(O)c3c(c(O)c1C2=O)C[C@@](O)(C(=O)CO)C[C@@H]3O[C@H]1C[C@H](N)[C@H](O)[C@H](C)O1 [Doxorubicin] | synergistic | synergistic |  |  |  |  |  |
| CC(=O)O[C@@]12CO[C@@H]1C[C@H](O)[C@@]1(C)C(=O)[C@H](O)C3=C(C)[C@@H](OC(=O)[C@H](O)[C@@H](NC(=O)OC(C)(C)C)c4ccccc4)C[C@@](O)([C@@H](OC(=O)c4ccccc4)[C@H]21)C3(C)C [Docetaxel] |  |  | synergistic effect | synergistic effect | 0.9 | 0.97 | 1.1 |
